According to publication PMC5058426 (Journal of porphyrins and phthalocyanines, 2016):

Key:
[1] = reference standard value; cited from earlier work
HEp2 cells [2] = experiment: Phototoxicity, Cell Titer Blue assay; format: cell-based, human; conditions: 24 h
HEp2 cells [3] = experiment: Time-dependent cellular uptake; format: cell-based, human; conditions: 10 μM; for cellular accumulation compared with MPIX 3: all time points over 24 h
[4] = target: EGFR extracellular domain (Homo sapiens, UniProt P00533); experiment: SPR binding to immobilized EGFR; conditions: SPR sensorgram, 400 to 500 s, 100 μM
[5] = Fluorescence quantum yield in DMF; format: physicochemical; conditions: room temperature, calculated using porphyrin 3 as standard (0.102)

EGFR extracellular domain, sequence (P00533 25-645 limits assumed): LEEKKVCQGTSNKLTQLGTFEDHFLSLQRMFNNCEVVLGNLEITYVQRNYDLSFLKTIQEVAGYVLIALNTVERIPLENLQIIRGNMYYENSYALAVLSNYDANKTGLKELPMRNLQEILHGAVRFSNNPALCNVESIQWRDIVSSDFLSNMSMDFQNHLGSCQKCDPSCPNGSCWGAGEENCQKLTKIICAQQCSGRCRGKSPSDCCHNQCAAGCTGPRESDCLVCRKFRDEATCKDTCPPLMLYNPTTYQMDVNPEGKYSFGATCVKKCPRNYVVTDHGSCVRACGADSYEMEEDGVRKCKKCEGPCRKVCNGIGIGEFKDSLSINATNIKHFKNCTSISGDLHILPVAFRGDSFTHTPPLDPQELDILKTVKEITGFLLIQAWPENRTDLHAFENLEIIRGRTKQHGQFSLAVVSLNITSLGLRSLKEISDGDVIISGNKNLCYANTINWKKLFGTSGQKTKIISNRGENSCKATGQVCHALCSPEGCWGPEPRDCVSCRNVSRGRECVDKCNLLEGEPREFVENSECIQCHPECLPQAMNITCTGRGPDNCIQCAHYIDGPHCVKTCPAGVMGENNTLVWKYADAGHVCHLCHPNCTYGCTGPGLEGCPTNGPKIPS

Compound	cellular accumulation compared with MPIX 3 (HEp2 cells [3])	Φf (fluorescence quantum yield) [5]	further results
CCC1=C(C)c2cc3[nH]c(cc4[nH]c(cc5nc(cc1n2)C(C)=C5CC)c(C)c4CCC(=O)O)c(CCC(=O)O)c3C [Compound 3, mesoporphyrin IX]			ΦF (fluorescence quantum yield) [1]: 0.102
CCC1=C(C)c2cc3[nH]c(cc4nc(cc5[nH]c(cc1n2)c(C)c5CCC(=O)N[C@@H](CC(C)C)C(=O)N[C@@H](C)C(=O)N[C@@H](CCCNC(=N)N)C(=O)N[C@@H](CC(C)C)C(=O)N[C@@H](CC(C)C)C(=O)N[C@H](C(N)=O)[C@@H](C)O)C(CCC(=O)N[C@@H](CC(C)C)C(=O)N[C@@H](C)C(=O)N[C@@H](CCCNC(=N)N)C(=O)N[C@@H](CC(C)C)C(=O)N[C@@H](CC(C)C)C(=O)N[C@H](C(N)=O)[C@@H](C)O)=C4C)c(C)c3CC [Compound 4]	much larger extent than MPIX 3		IC50 (HEp2 cells [2]): 50 µM; cellular accumulation ranking at early times (HEp2 cells [3]; times < 4 h): accumulated the most
CCC1=C(C)c2cc3[nH]c(cc4nc(cc5[nH]c(cc1n2)c(C)c5CCC(=O)NCC(=O)N[C@@H](Cc1ccc(O)cc1)C(=O)N[C@@H](Cc1c[nH]cn1)C(=O)N[C@@H](Cc1c[nH]c2ccccc12)C(=O)N[C@@H](Cc1ccc(O)cc1)C(=O)NCC(=O)N[C@@H](Cc1ccc(O)cc1)C(=O)N[C@H](C(=O)N1CCC[C@H]1C(=O)N[C@@H](CCC(N)=O)C(=O)N[C@@H](CC(N)=O)C(=O)N[C@H](C(=O)N[C@H](C(N)=O)[C@@H](C)CC)C(C)C)[C@@H](C)O)C(CCC(=O)O)=C4C)c(C)c3CC [Compound 5]	much larger extent than MPIX 3	0.124	dissociation rate from EGFR [4]: slower dissociation rates
GYHWYGYTPQNVI [Compound 8]	much larger extent than MPIX 3	0.132	cellular uptake relative to MPIX 3 (HEp2 cells [3]; after 24 h): about 8 fold
LARLLT [Compound 7]	accumulated significantly less	0.124	
